In US20240207292A1, “BORONIC ACID COMPOUNDS, COMPOSITIONS AND METHODS” (Trustees of Tufts College, priority 2021, published 2024):
“And” between values parts separate entries of the source, which are not always exact repeats. Equal values may be shown once. Read-outs that look alike come from different tables or passages of the source. Square brackets hold non-standard residues; d marks the D form. Peptide text beside a SMILES is read from it. * marks the point of attachment. DOTAGA = O=C(O)CN1CCN(CC(=O)O)CCN(C(CCC(=O)*)C(=O)O)CCN(CC(=O)O)CC1; X5 = O=C(O)CN1CCN(CC(=O)O)CCN([C@H](CCC(=O)*)C(=O)O)CCN(CC(=O)O)CC1; DOTA = O=C(O)CN1CCN(CC(=O)O)CCN(CC(=O)*)CCN(CC(=O)O)CC1; Pyrrolidine(2S-CN,4,4-F2) = N#C[C@@H]1CC(F)(F)CN1*; boroPro = OB(O)[C@@H]1CCCN1*

Columns and labels:
Assay type in all cases: biochemical
[1] = molecular target: recombinant human fibroblast activation protein (FAP) (Homo sapiens (Human), UniProt Q12884); experiment: In vitro assay fibroblast activation protein IC50 (Example 21)
recombinant human fibroblast activation protein (FAP), sequence (Q12884 whole entry): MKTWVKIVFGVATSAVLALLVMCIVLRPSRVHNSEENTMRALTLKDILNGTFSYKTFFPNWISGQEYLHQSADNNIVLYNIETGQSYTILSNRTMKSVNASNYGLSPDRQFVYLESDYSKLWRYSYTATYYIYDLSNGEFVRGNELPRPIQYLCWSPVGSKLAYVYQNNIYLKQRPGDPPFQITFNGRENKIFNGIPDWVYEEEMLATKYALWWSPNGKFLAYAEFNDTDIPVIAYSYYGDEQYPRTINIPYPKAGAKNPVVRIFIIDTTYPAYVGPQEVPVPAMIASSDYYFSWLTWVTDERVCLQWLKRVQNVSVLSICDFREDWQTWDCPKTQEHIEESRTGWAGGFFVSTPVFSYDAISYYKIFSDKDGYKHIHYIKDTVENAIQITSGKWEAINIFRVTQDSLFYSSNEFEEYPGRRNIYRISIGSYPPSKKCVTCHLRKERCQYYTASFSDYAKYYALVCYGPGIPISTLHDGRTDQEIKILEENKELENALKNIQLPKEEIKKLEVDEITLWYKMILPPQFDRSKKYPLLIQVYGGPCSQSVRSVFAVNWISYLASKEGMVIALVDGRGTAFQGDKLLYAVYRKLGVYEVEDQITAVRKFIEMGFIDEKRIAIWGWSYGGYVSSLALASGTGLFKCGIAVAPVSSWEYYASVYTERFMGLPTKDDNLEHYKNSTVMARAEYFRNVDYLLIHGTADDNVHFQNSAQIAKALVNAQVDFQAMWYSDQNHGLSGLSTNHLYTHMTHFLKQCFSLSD
Experimental: (§1) The purpose of this assay is to determine the IC50 of various inhibitors against recombinant human dipeptidyl peptidase IV (DPPIV), fibroblast activation protein (FAP) or prolyl oligopeptidase (PREP).
(§2) The assays are conducted in the following steps: • 1 Dissolve the compound in DMSO to a final concentration of 100 mM. From this, prepare a 1 mM stock at pH 7.5 in 50 mM Tris, 140 mM NaCl Buffer (FAP)/pH 7.5 in 25 mM Tris, 250 mM NaCl Buffer/[…]. • 2. Serial dilute (1:10) the 1 mM compound stocks prepared previously into the appropriate assay buffer (FAP: 50 mM Tris, 140 mM NaCl, pH 7.5/PREP: 25 mM Tris, 0.25 M NaCl, pH 7.5/DPPIV: 25 mM Tris, pH 8.0) to one row of a 96-well plate. • 3. […] Dilute the enzymes into their appropriate assay buffers. The final enzyme concentrations should be 0.1, 1.2, and 0.6 nM for DPPIV, FAP and PREP respectively. Add 180 μL to each well needed in columns 2-10. Column 1(A,B,C) should be prepared with 200 μl of appropriate assay buffer as control. Column 1(D,E,F,G,H) should be prepared with 20 μl of appropriate assay buffer and 180 ul enzyme as no inhibitor control. • 5. Add 20 μL of the compound of interest from the dilution plate prepared in step 2 to columns 2-10 of the assay plate where appropriate. Each sample should be tested in triplicate. Allow this to incubate for 10 minutes at room temperature, shaking the plate for the first two minutes. • 6. Add 10 μL of 20× substrate prepared in step 3 to each well and allow this to incubate for 15 minutes at room temperature, shaking the plate for the first two minutes. • 7. Read the fluorescence at λex: 380, λem: 460. (DPcore=[dAla|dSer|Gly]-[boroPro|Pro-nitrile], XXaa=alpha-amino acid)

[2] = molecular target: recombinant human prolyl oligopeptidase (PREP) (Homo sapiens (Human), UniProt P48147); experiment: In vitro assay prolyl oligopeptidase IC50 (Example 21)
recombinant human prolyl oligopeptidase (PREP), sequence (P48147 whole entry): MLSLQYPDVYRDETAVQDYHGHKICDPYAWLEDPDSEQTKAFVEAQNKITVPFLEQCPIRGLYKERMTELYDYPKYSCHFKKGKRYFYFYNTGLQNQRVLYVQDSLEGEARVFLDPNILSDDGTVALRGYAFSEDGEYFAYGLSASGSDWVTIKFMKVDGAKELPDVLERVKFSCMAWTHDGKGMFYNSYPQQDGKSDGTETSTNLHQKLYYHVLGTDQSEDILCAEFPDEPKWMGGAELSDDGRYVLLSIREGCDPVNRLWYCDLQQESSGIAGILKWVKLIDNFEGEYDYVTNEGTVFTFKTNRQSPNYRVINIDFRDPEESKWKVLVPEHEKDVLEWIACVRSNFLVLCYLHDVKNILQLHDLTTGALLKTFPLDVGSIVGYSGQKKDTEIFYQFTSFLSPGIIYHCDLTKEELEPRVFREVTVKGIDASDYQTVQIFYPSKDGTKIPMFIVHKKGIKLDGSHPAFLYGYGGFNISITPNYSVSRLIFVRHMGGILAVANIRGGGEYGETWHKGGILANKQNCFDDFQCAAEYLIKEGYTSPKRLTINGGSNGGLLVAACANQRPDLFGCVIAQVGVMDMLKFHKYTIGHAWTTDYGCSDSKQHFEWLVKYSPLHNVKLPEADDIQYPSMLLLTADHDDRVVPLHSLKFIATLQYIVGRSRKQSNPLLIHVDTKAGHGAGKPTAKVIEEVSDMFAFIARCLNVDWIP
Experimental: as §1, §2

[3] = molecular target: recombinant human dipeptidyl peptidase IV (DPPIV) (Homo sapiens (Human), UniProt P27487); experiment: In vitro assay dipeptidyl peptidase IV IC50 (Example 21)
recombinant human dipeptidyl peptidase IV (DPPIV), sequence (P27487 whole entry): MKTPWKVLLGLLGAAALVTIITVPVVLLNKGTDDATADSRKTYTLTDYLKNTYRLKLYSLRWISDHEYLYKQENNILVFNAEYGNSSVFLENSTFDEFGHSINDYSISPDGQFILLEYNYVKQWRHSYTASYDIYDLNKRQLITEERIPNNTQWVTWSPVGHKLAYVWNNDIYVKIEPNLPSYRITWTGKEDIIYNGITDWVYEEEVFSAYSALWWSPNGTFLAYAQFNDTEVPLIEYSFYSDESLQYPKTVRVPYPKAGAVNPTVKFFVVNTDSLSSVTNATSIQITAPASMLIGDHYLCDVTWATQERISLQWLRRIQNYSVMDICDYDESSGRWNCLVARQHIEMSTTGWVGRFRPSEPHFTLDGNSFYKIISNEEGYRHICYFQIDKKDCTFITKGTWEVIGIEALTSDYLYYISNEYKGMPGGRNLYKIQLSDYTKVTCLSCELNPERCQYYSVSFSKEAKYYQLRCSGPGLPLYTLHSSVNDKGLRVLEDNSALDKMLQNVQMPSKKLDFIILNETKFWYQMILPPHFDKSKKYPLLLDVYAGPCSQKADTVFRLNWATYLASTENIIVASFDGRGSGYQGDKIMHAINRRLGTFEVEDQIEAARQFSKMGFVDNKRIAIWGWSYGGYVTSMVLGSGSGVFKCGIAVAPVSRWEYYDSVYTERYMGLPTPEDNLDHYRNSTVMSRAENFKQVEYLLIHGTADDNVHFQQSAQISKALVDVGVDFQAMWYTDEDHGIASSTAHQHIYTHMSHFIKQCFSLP
Experimental: as §1, §2

IC50 ([1]; Z-Gly-Pro-AMC, 1.2 nM enzyme) [nM]	IC50 ([2]; Z-Gly-Pro-AMC, 0.6 nM enzyme) [nM]	SMILES	IC50 [1]	IC50 [2] [nM]	IC50 [3] [nM]
–	–	C[C@@H](NC(=O)c1ccc(NNC(=O)CN2CCN3CCN4CCN(CC2)CC(=O)[O][Gd]([O]C(=O)C3)[O]C(=O)C4)nc1)C(=O)N1CCC[C@H]1B(O)O [4536GD]	450 nM	> 100000	> 100000
–	–	C[C@@H](NC(=O)c1ccc(NNC(=O)CCCCC[N+]2=C(/C=C/C3=C(Oc4ccc(S(=O)(=O)O)cc4)C(=C/C=C4/N(CCCCS(=O)(=O)O)c5ccc(S(=O)(=O)O)cc5C4(C)C)/CCC3)C(C)(C)c3cc(S(=O)(=O)O)ccc32)nc1)C(=O)N1CCC[C@H]1B(O)O [4613 B]	8.8 nM and 10 nM	390	> 100000
–	–	C[C@@H](NC(=O)c1ccc(NNC(=O)CCCCCNC(=O)CN2CCN3CCN4CCN(CC2)CC(=O)[O][Ga]([O]OC(=O)C3)[O]C(=O)C4)cc1)C(=O)N1CCC[C@H]1B(O)O [6486 GA]	81 nM	4700	> 100000
–	–	C[C@@H](NC(=O)c1ccc(NNC(=O)CCCNC(=O)CN2CCN3CCN4CCN(CC2)CC(=O)[O][Ga]([O]C(=O)C3)[O]C(=O)C4)nc1)C(=O)N1CCC[C@H]1B(O)O [6489 GA]	39 nM	3400	> 100000
–	–	C[C@@H](NC(=O)c1ccc(CNC(=O)CN2CCN3CCN4CCN(CC2)CC(=O)[O][Lu]([O]C(=O)C3)[O]C(=O)C4)nc1)C(=O)N1CCC[C@H]1B(O)O [6556LU]	2.9 nM	895	–
–	–	C[C@@H](NC(=O)c1ccc(NC(=O)CN2CCN3CCN4CCN(CC2)CC(=O)[O][Ga]([O]C(=O)C3)[O]C(=O)C4)cc1)C(=O)N1CCC[C@H]1B(O)O [6572GA]	25 nM	234	–
–	–	C[C@@H](NC(=O)c1ccc(NC(=O)CN2CCN3CCN4CCN(CC2)CC(=O)[O][Lu]([O]C(=O)C3)[O]C(=O)C4)cc1)C(=O)N1CCC[C@H]1B(O)O [6572LU]	9.5 nM	891	–
–	–	C[C@@H](NC(=O)c1ccc(NNC(=O)CCCCCNC(=O)CN2CCN3CCN4CCN(CC2)CC(=O)[O][Lu]([O]C(=O)C3)[O]C(=O)C4)nc1)C(=O)N1CCC[C@H]1B(O)O [6609LU]	1 nM	60	–
–	–	C[C@@H](NC(=O)c1ccc(NNC(=O)CCCCCNC(=O)CN2CCN3CCN4CCN(CC2)CC(=O)[O][Lu]([CH2]C(=O)C3)[O]C(=O)C4)nc1)C(=O)N1CCC[C@H]1B(O)O [6958LU]	1.1 nM	155	–
290	> 10000	C[C@@H](NC(=O)CN1CCN(CC(=O)O)CCN(CC(=O)O)CCN(CC(=O)O)CC1)C(=O)N1CCC[C@H]1B(O)O [compound 4535]	–	–	–
–	–	C[C@@H](NC(=O)c1ccc(NC(=O)CCCCNC(=O)CN2CCN(CC(=O)O)CCN(CC(=O)O)CCN(CC(=O)O)CC2)cc1)C(=O)N1CCC[C@H]1B(O)O [compound 6590]	1.6 nM	129	–
–	–	C[C@@H](NC(=O)c1ccc(CNC(=O)CCCNC(=O)CN2CCN(CC(=O)O)CCN(CC(=O)O)CCN(CC(=O)O)CC2)cc1)C(=O)N1CCC[C@H]1B(O)O [compound 6591]	0.36 nM	103	–
107	157000	CC(C)[C@H](NC(=O)CNC(=O)CNC(=O)CN1CCN(CC(=O)O)CCN(CC(=O)O)CCN(CC(=O)O)CC1)C(=O)N[C@H](C)C(=O)N1CC(F)(F)C[C@H]1C#N [compound 6790] ({DOTA}-GGV[dA]-{Pyrrolidine(2S-CN,4,4-F2)})	–	–	–
33	17400	CC(C)[C@H](NC(=O)CNC(=O)CNC(=O)CCC(C(=O)O)N1CCN(CC(=O)O)CCN(CC(=O)O)CCN(CC(=O)O)CC1)C(=O)N[C@H](C)C(=O)N1CCC[C@H]1B(O)O (stereo partly drawn) [compound 6794] ({DOTAGA}-GGV[dA]-boroPro)	–	–	–
8.9	5520	CC(C)[C@H](NC(=O)CNC(=O)CCC(C(=O)O)N1CCN(CC(=O)O)CCN(CC(=O)O)CCN(CC(=O)O)CC1)C(=O)N[C@H](C)C(=O)N1CCC[C@H]1B(O)O (stereo partly drawn) [compound 6795]	–	–	–

SMILES	IC50 ([1]; Z-Gly-Pro-AMC, 1.2 nM enzyme) [nM]	IC50 ([2]; Z-Gly-Pro-AMC, 0.6 nM enzyme) [nM]	IC50 [1]	IC50 [2] [nM]	IC50 [3] [nM]
CC(C)[C@H](NC(=O)CNC(=O)CNC(=O)CNC(=O)CC[C@H](C(=O)O)N1CCN(CC(=O)O)CCN(CC(=O)O)CCN(CC(=O)O)CC1)C(=O)N[C@H](C)C(=O)N1CCC[C@H]1B(O)O [6808D] (X5-GGGV[dA]-boroPro)	11.5	11000	–	–	–
